Measured values published in patent US20250281453A1, “COMBINATION THERAPIES COMPRISING QTX125” (QUIMATRYX, S.L., priority 2022, published 2025).

Legend:
Format in all cases: cell-based
[1] = test system: HCT-116 colonic cancer cells; assay: Cell viability, ALAMAR blue assay, monotherapy
Procedure: (§1) In brief, HCT-116, MiaPaCa-2 and Panc-1 cells were thawed in high glucose DMEM (Sigma D5796) with 10% heat-inactivated Foetal Calf Serum (FCS) (PAA, A15-101)). Hep-G2 and SK-Hep1 cells were thawed in Minimum Essential Media (MEM) (Sigma M2279) with 1% non-essential amino acids (Sigma M7145), 2 mM Glutamine (Sigma G7513) and 10% FCS. SK-OV-3 cells were thawed in McCoy's 5A medium (Sigma, M8403) with 15% FCS. All cells were passaged by washing once in cation-free dPBS (Sigma, D1408), and incubated for 3 minutes with trypsin ([0.5 μg/ml]/EDTA [0.2 μg/ml] (Sigma, T4174) in dPBS). Passage was completed at 37° C., and cells were transferred to the appropriate media. Prior to seeding at defined cell density, cells were recovered in medium, centrifuged and resuspended for counting.
(§2) To prepare cells for viability assays, cells were transferred into 96 well tissue culture plates (Cultek), and resuspended in 100 µL at the following densities: 10,000 cells/well (Hep-G2 and MiaPaCa-2), 5000 cells/well (Panc-1 and SK-OV-3) or 3000 cells/well (HCT-116). Following 24 hours of incubation, media was removed and replaced with 100 µL media spiked with QTX125 and the test chemotherapeutic agents. Stock solutions for the agents used in this study are shown below in Table 1. Cells were incubated for a further 72 hours before cell viability was assessed using both ALAMAR® and hexosaminidase assays.
(§3) For the ALAMAR® blue assay, media containing QTX125 and the test chemotherapeutic agents was removed, and cells were stained using ALAMAR® blue (BioSource DAL 1100) for 4 hours at 37° C., following the manufacturer's instructions. Relative fluorescent intensity was measured using a Cytofluor® plate reader (Millipore) at 535/590 nm (Excitation/emission). This measure directly correlates with the number of viable cells present in each well.
(§4) A number of appropriate control samples were included. First, absorbance values measured in reagent ‘blank’ wells (containing cell culture medium and colorimetric agent only) were subtracted from ‘test’ sample-containing wells. ‘Blank’ absorbance values were routinely between 5 and 10% of the values recorded in test wells. Absorbance values recorded in test wells were then compared against wells containing (i) cells stimulated with QTX125 only; (ii) cells stimulated with sorafenib, gemcitabine or bortezomib only and/or (iii) unstimulated cells, as appropriate.
(§5) Control values were normalised to 100% and percentage (%) viability was calculated. Data were used to plot log dose-response curves using a sigmoid dose-response (variable slope) equation. EC50 values were obtained using Equation 1, where ‘X’ is the logarithmic concentration; ‘Y’ is the response output and it is assumed that Y starts at bottom of the graph and reaches the top with an overall sigmoid shape.
(§6) Prior to assessing the oncolytic efficacy of QTX125-containing combination therapies, the oncolytic effect of each test agent was assessed in isolation. Dose-response curves were produced by serial dilution (1:1), thereby allowing monotherapy EC50 values to be calculated.
(§7) Chemotherapeutic agents were added to wells at a starting concentration of 100 μM. However, it was quickly determined that it was not possible to use this range for all chemotherapeutic agents tested. An optimization study was therefore completed to identify suitable maximum (‘high’) doses for each agent and in each individual cell line.

[2] = test system: Hep-G2 hepatic cancer cells; assay: Cell viability, ALAMAR blue assay, monotherapy
Procedure: as §1, §2, §3, §4, §5, §6, §7

[3] = test system: MiaPaCa-2 pancreatic cancer cells; assay: Cell viability, ALAMAR blue assay, monotherapy
Procedure: as §1, §2, §3, §4, §5, §6, §7

[4] = test system: Panc-1 pancreatic cancer cells; assay: Cell viability, ALAMAR blue assay, monotherapy
Procedure: as §1, §2, §3, §4, §5, §6, §7

[5] = test system: SK-OV-3 ovarian cancer cells; assay: Cell viability, ALAMAR blue assay, monotherapy
Procedure: as §1, §2, §3, §4, §5, §6, §7

[6] = test system: HCT-116 colonic cancer cells; assay: Cell viability, hexosaminidase assay, monotherapy
Procedure: as §1, §2
(§8) For the hexosaminidase assay, media containing QTX125 and the test chemotherapeutic agents was removed, and cells were washed once with PBS. 60 μL of substrate solution (containing: 7.5 mM p-nitrophenol-N-acetyl-beta-D-glucosamide [Sigma N-9376], 0.1 M sodium citrate, pH 5.0 and 0.25% Triton X-100) was added to each well and cells were incubated at 37° C. for at least 1 hour. Incubating cells in this manner causes the substrate solution to become bright yellow, at which point 90 μL of developer solution (containing 50 mM Glycine pH 10.4 and 5 mM EDTA) was added to each well. Absorbance at 410 nm was recorded using a plate reader.
as §4, §5, §6, §7

[7] = test system: Hep-G2 hepatic cancer cells; assay: Cell viability, hexosaminidase assay, monotherapy
Procedure: as §1, §2, §8, §4, §5, §6, §7

[8] = test system: MiaPaCa-2 pancreatic cancer cells; assay: Cell viability, hexosaminidase assay, monotherapy
Procedure: as §1, §2, §8, §4, §5, §6, §7

[9] = test system: Panc-1 pancreatic cancer cells; assay: Cell viability, hexosaminidase assay, monotherapy
Procedure: as §1, §2, §8, §4, §5, §6, §7

[10] = test system: SK-OV-3 ovarian cancer cells; assay: Cell viability, hexosaminidase assay, monotherapy
Procedure: as §1, §2, §8, §4, §5, §6, §7

[11] = 72 hours of high-dose monotherapy (Table 2: QTX125 1, sorafenib 100, gemcitabine 10, bortezomib 1 μM)
[12] = Homo sapiens, 72 h, read-out: EC50 dose of monotherapy
[13] = 72 hours of high-dose monotherapy (Table 2: QTX125 5, sorafenib 100, gemcitabine 100, bortezomib 1 μM)
[14] = Homo sapiens, HepG2, 72 h, read-out: EC50 dose of monotherapy
[15] = 72 hours of high-dose monotherapy (Table 2: QTX125 100, sorafenib 100, gemcitabine 100, bortezomib 1 μM)
[16] = 72 hours of high-dose monotherapy (Table 2: QTX125 10, sorafenib 100, gemcitabine 10, bortezomib 1 μM)

O=C(NO)c1ccc(CNC(=O)c2[nH]c(-c3ccc(O)cc3)cc2-c2ccoc2)cc1 [QTX125, 3-(3-Furyl)-N-{4-[(hydroxyamino)carbonyl]benzyl}-5-(4-hydroxyphenyl)-1 Hpyrrole-2-carboxamide]
percentage (%) cell viabilities [1, 11]: 0.0%
EC50 [1, 12]: 330 nM
percentage (%) cell viabilities [2, 13]: 0.0%
EC50 [2, 14]: 910 ± 200 nM
percentage (%) cell viabilities [3, 15]: 0.0%
EC50 ([3]; Homo sapiens, MIA PaCa-2, 72 h, 72 h, read-out: EC50 dose of monotherapy): 1790 ± 50 nM
percentage (%) cell viabilities [4, 15]: 0.0%
EC50 [4, 12]: 1400 ± 150 nM
percentage (%) cell viabilities [5, 16]: 0.0%
EC50 [5, 12]: 3000 ± 400 nM
percentage (%) cell viabilities [6, 11]: 7.3%
EC50 [6, 12]: 430 nM
percentage (%) cell viabilities [7, 13]: 2.1%
EC50 [7, 14]: 3300 ± 400 nM
reduction of the population of viable cells ([7]; high-dose monotherapy, 72 hours): ~98%
percentage (%) cell viabilities [8, 15]: 7.3%
EC50 ([8]; Homo sapiens, MIA PaCa-2, 72 h, read-out: EC50 dose of monotherapy): 1500 ± 200 nM
percentage (%) cell viabilities [9, 15]: 3.9%
EC50 [9, 12]: 3600 ± 500 nM
percentage (%) cell viabilities [10, 16]: 5.0%
EC50 [10, 12]: 3600 ± 400 nM
